Measurements: ChEMBL document CHEMBL5465560, “Selectivity Literature for EUbOPEN Chemogenomic Library” (2024)

Experiments:
[1] = target: T1, Serine/threonine-protein kinase STK11 (Homo sapiens) (UniProt Q15831); assay: Selectivity interaction (Kinase panel (KiNativ target engagement assay in Jurkat cells)) EUB0001635a STK11; assay type: cell-based; details: Selectivity number of off-targets 0.0, Selectivity number of targets 233.0, Source Knowledge https://www.sciencedirect.com/science/article/pii/S2451945619300674?via%3Dihub, at 1 µM
T1 sequence (whole entry): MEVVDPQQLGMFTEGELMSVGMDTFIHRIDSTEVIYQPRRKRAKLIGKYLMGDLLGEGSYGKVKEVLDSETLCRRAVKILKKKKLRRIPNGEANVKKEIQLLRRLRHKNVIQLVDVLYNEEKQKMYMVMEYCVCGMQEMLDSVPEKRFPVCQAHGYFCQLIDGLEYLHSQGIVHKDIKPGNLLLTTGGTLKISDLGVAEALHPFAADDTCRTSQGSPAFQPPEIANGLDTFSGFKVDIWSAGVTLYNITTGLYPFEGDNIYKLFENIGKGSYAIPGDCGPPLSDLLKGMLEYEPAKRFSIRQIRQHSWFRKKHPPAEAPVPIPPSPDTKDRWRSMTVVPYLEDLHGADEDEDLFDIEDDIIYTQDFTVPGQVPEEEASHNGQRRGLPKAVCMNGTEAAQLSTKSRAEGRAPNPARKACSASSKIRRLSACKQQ

[2] = target: Cyclin-dependent kinase 18 (Homo sapiens) (UniProt Q07002); details: at 10 µM
Sequence of Cyclin-dependent kinase 18 (Homo sapiens) (Q07002 whole entry): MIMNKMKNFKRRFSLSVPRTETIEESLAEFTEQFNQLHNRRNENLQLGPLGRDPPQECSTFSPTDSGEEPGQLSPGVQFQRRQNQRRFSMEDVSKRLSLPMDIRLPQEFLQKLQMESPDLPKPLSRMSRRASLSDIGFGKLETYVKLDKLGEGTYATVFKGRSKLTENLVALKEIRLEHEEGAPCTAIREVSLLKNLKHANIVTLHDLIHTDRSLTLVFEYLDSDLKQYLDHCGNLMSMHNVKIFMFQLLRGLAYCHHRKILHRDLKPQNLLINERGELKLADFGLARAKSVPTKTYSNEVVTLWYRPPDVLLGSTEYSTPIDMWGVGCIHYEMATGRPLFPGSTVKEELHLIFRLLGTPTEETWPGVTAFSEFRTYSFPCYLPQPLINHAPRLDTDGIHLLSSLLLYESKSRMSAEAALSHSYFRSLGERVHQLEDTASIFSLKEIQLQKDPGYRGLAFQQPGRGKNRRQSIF

[3] = target: Protein kinase C delta type (Homo sapiens) (UniProt Q05655); details: at 10 µM
Sequence of Protein kinase C delta type (Homo sapiens) (Q05655 whole entry, looked up): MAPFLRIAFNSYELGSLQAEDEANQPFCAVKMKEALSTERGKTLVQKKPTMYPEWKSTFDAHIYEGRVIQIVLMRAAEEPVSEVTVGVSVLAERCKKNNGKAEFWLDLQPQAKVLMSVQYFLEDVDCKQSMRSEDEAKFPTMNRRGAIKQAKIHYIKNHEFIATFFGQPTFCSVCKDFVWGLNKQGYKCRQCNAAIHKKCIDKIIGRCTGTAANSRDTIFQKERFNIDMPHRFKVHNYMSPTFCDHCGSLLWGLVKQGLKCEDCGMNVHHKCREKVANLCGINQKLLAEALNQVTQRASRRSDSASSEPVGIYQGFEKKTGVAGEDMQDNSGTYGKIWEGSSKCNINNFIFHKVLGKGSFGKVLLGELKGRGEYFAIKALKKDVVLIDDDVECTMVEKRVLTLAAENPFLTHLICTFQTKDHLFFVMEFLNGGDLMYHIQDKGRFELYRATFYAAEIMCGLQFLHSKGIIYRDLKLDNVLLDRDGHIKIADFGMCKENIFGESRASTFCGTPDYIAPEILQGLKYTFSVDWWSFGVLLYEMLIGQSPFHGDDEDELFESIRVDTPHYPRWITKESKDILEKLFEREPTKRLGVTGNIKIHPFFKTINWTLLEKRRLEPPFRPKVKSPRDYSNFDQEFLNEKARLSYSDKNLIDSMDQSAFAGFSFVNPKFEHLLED

[4] = target: T2, Myotonin-protein kinase (Homo sapiens) (UniProt Q09013); assay: Selectivity interaction (Kinase panel (Invitrogen)) EUB0000639a DMPK; details: at 200 nM
T2 sequence (whole entry): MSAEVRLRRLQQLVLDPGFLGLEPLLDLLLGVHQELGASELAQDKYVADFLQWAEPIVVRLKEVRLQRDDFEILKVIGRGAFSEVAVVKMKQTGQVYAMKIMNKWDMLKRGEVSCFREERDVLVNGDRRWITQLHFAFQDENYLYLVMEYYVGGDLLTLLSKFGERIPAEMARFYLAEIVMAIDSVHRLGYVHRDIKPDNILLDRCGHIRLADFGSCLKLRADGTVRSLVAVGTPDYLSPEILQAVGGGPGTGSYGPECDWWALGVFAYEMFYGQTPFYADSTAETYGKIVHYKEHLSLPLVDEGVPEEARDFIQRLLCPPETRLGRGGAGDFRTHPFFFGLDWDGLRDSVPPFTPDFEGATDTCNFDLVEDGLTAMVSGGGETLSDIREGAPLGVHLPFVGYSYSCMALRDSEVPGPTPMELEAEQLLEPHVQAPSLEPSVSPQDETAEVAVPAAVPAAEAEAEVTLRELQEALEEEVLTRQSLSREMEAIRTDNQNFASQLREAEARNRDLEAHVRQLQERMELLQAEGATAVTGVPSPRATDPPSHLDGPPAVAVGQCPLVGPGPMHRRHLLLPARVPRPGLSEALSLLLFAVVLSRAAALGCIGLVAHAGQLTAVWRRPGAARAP

[5] = target: T3, Serine/threonine-protein kinase 3 (Homo sapiens) (UniProt Q13188); assay: Selectivity interaction (Ambit KINOMEscan and KiNATiv profiling in Jurkat cells) EUB0000090b STK3; assay type: cell-based; details: at 1 µM
T3 sequence (whole entry): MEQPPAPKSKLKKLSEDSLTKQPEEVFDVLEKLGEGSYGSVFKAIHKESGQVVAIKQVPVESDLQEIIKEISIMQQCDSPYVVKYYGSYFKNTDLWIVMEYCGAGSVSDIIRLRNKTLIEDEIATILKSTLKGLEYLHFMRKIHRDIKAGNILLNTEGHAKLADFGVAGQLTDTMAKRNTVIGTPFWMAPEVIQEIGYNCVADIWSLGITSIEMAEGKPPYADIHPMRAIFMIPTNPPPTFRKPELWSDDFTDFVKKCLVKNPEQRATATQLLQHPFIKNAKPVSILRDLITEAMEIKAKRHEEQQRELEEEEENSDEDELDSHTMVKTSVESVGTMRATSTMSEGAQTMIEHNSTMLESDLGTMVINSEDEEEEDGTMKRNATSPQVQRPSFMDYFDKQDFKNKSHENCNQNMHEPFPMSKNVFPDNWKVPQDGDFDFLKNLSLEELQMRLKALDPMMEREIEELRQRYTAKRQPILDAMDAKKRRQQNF

[6] = target: T4, Dual specificity mitogen-activated protein kinase kinase 3 (Homo sapiens) (UniProt P46734); assay: Selectivity interaction (KinomeScan (DiscoverX)) EUB0000618a MAP2K3; details: at 10 µM
T4 sequence (whole entry): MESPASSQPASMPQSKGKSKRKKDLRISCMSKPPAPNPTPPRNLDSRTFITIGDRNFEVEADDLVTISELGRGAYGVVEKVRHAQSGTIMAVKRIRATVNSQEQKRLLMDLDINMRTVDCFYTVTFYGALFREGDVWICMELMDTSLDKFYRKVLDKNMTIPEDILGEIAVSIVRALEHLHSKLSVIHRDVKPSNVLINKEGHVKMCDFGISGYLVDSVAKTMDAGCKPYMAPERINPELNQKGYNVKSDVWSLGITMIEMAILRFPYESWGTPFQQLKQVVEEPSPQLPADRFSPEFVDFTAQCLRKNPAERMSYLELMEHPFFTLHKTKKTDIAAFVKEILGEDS

[7] = target: Serine/threonine-protein kinase pim-1 (Homo sapiens, UniProt P11309); assay: Selectivity interaction (KinomeScan (DiscoverX)) EUB0000607a PIM1; details: at 10 µM
Sequence of Serine/threonine-protein kinase pim-1 (P11309 whole entry, looked up): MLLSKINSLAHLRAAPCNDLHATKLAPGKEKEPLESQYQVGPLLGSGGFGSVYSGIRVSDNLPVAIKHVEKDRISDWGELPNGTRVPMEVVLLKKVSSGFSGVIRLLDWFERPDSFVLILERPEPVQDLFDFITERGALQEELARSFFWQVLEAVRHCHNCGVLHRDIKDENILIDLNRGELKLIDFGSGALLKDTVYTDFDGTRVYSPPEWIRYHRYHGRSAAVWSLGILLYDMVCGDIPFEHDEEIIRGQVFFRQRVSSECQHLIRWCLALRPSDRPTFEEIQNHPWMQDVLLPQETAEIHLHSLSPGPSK

[8] = target: RAC-alpha serine/threonine-protein kinase (Homo sapiens, UniProt P31749); assay: Selectivity interaction (ProQinase) EUB0000171b AKT1
Sequence of RAC-alpha serine/threonine-protein kinase (P31749 whole entry): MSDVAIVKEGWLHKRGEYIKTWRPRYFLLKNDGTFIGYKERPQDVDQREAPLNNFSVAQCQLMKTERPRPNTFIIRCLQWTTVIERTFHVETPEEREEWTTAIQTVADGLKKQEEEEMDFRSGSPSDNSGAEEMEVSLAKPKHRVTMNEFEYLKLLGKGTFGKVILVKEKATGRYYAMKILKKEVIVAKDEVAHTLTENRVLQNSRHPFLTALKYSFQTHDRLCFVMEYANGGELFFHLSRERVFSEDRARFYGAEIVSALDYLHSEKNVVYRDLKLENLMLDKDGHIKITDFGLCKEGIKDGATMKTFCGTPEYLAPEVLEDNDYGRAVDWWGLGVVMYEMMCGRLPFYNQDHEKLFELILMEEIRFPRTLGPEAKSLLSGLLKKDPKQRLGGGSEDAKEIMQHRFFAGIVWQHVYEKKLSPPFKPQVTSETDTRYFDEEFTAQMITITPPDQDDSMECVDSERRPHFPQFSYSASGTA

SMILES: C=CC(=O)Nc1ccc(C(=O)Nc2[nH]nc3c2CN(C(=O)N[C@H](CN(C)C)c2ccccc2)C3(C)C)cc1
- % of engagement [1]: 11.1%

SMILES: CCN(CC)CCCCNc1ncc2cc(-c3cc(OC)cc(OC)c3)c(NC(=O)NC(C)(C)C)nc2n1
- % of control [2]: 100%
- % of control [3]: 100%

SMILES: CC[C@@H]1[C@H](F)C(=O)N[C@@H]1COc1nccc2cc(C(N)=O)c(OC)cc12 [ZIMLOVISERTIB]
- % of inhibition [4]: -0.603%

SMILES: CN(C)C/C=C/C(=O)Nc1ccc(C(=O)N2CCCC(Nc3ncc(Cl)c(-c4c[nH]c5ccccc45)n3)C2)cc1 (centres undefined)
- % of control [5]: 92%

SMILES: O[C@H]1CC[C@H](Nc2ncc3nc(Nc4c(F)cc(F)cc4F)n([C@H]4CCOC4)c3n2)CC1
- % of control [6]: 43%

SMILES: CNC(=O)Nc1ccc(-c2nc(N3CC4CCC(C3)O4)c3cnn(C4CCC5(CC4)OCCO5)c3n2)cc1
- % of control [7]: 100%

SMILES: C=CC(=O)Nc1cccc(C(=O)Nc2ccc(Nc3cc(-c4[nH]c(SC)nc4C)ccn3)cc2)c1
- % of control ([8]; at 1 µM): 84%
- % of control ([8]; at 5 µM): 69%
